Measurements as given in ChEMBL document CHEMBL1149230, “Long chain amines and long chain ammonium salts as novel inhibitors of dynamin GTPase activity” (Bioorg Med Chem Lett, 2004).
Active and inactive are the calls of the source. The rule behind the calls is not given here.

What was measured:
[1] = organism: Ovis aries; assay: Compound was tested for its ability to inhibit Dynamin-1 GTPase activity of sheep brain at 30 uM; NE=No effect
[2] = organism: Ovis aries; assay: Compound was tested for its ability to inhibit Dynamin-1 GTPase activity of sheep brain; Increased activity; format: tissue-based
[3] = organism: Ovis aries; assay: Concentration required against Dynamin-1 GTPase activity of sheep brain at 3 uM; format: tissue-based

CCCC/C=C\C/C=C\C/C=C\C/C=C\CCCC(=O)OCC(O)CO (stereo not drawn)
Activity [1]: inactive | Concentration [2]: 300 µM | inhibition [3]: 70%
